Data from patent US20070010397A1, “Safeners and their application” (priority 2003, published 2007).

Columns and labels:
[1] = system: wheat (variety: Norin No.61); experiment: Test for safening effect against phytotoxicity of herbicidal compounds against wheat; assay type: in vivo; conditions: for Phytotoxicity %: wheat seeds in dish, after 5 days; for Expected value E by Colby's equation (Phytotoxicity %): wheat
Method: Preparation of Test Solution
Carrier: Acetone 5 parts by weight
Surfactant: Benzyloxy polyglycol ether 1 part by weight
A prescribed amount of the test solution is prepared by diluting with water the formulation obtained by mixing the above-mentioned carrier and surfactant with 1 part by weight of the active compounds (safeners and herbicidal compounds).
Test Example 1: Test for Safening Effect against Phytotoxicity of Herbicidal Compounds against Wheat
Seeds of wheat (variety: Norin No.61) were sown on absorbent cotton in a dish, containing the previously prepared, diluted solution with the prescribed concentration of the test compounds, and grown in a climate chamber. After 5 days the degree of phytotoxicity, particularly bleaching state, was observed and evaluated in 0-100%.
100% =Complete bleaching or withering state
(§1) Test results were evaluated by Colby's equation. Colby's equation: [formula]
E: Expected value of phytotoxicity by mixing
X: Measured value of phytotoxicity by one active compound • Y: Measured value of phytotoxicity by the other active compound Table 1

[2] = system: paddy rice (variety: Nipponbare); experiment: Test for safening effect against phytotoxicity of herbicidal compounds against paddy rice; assay type: in vivo
Method: as §1
Test Example 2: Test for Safening Effect against Phytotoxicity of Herbicidal Compounds against Paddy Rice (Method)
Two seedlings of paddy rice (variety: Nipponbare) of 2.5 leaf stage were transplanted in a plastic pot under submerged conditions with a trnsplantation depth of 0 cm. A diluted solution with the prescribed concentration of the 4% granules of the compound No. I-1 and herbicidal compounds were applied on the water surface. Three weeks after the application the degree of phytotoxicity was observed and evaluated in 0-100%.
100%=Complete withering state

[3] = safener 10 ppm alone (H-1 0 ppm), 0% = no phytotoxicity, 100% = complete bleaching or withering
[4] = safener 50 ppm alone (H-1 0 ppm)

SMILES	Phytotoxicity % ([1]; safener 10 ppm + H-1 10 ppm) [%]	Phytotoxicity % [1, 3] [%]	Phytotoxicity % ([1]; safener 50 ppm + H-1 10 ppm) [%]	Phytotoxicity % [1, 4] [%]	Expected value E by Colby's equation (Phytotoxicity %) ([1]; safener 10 ppm + H-1 10 ppm) [%]	Expected value E by Colby's equation (Phytotoxicity %) ([1]; safener 50 ppm + H-1 10 ppm) [%]	further results
CS(=O)(=O)c1ccc(C(=O)C2=C(O)CCCC2=O)c(Cl)c1COCC1CCCO1 (stereo not drawn) [H-1]	–	–	–	–	–	–	Phytotoxicity % ([1]; H-1 10 ppm alone (safener 0 ppm)): 50%; Phytotoxicity % ([2]; paddy rice, three weeks after application, H-1 0.6 kg/ha + No. I-1 1 kg/ha): 10%; Phytotoxicity % ([2]; paddy rice, three weeks after application, H-1 0.6 kg/ha alone (No. I-1 0 kg/ha)): 30%; Expected value E by Colby's equation (Phytotoxicity %) ([2]; paddy rice, H-1 0.6 kg/ha + No. I-1 1 kg/ha): 30%
COC(=O)c1ccccc1CS(=O)(=O)NC(=O)Nc1nc(OC)cc(OC)n1 [H-2, Bensuiliron-methyl]	–	–	–	–	–	–	Phytotoxicity % ([2]; in vivo): 40%
CCOC(=O)[C@@H](C)Oc1ccc(Oc2nc3ccc(Cl)cc3o2)cc1 [H-3, Fenoxaprop-P-ethyl]	–	–	–	–	–	–	Phytotoxicity % ([2]; paddy rice, three weeks after application, H-3 0.1 kg/ha + No. I-1 1 kg/ha): 40%; Phytotoxicity % ([2]; paddy rice, three weeks after application, H-3 0.1 kg/ha alone (No. I-1 0 kg/ha)): 70%; Expected value E by Colby's equation (Phytotoxicity %) ([2]; paddy rice, H-3 0.1 kg/ha + No. I-1 1 kg/ha): 70%
N#Cc1ccccc1NC(=O)c1snc(Cl)c1Cl [No. I-1]	20	0	20	0	50	50	Phytotoxicity % ([2]; paddy rice 2.5 leaf stage, three weeks after application, No. I-1 (4% granules) 1 kg/ha alone, herbicide 0 kg/ha): 0%
Cc1ccc(NC(=O)c2snc(Cl)c2Cl)c(C)c1 [No. I-2]	30	0	10	0	50	50	–
CN(C)CNC(=O)c1snc(Cl)c1Cl [No. I-3]	5	0	0	0	50	50	–
CCC(C)c1ccc(NC(=O)c2snc(Cl)c2Cl)cc1 (stereo not drawn) [No. I-4]	10	0	5	0	50	50	–
CCC(CC)c1ccc(NC(=O)c2snc(Cl)c2Cl)cc1 [No. I-5]	30	0	10	0	50	50	–
CCN(CC)Cc1ccc(CNC(=O)c2snc(Cl)c2Cl)cc1 [No. I-6]	15	0	15	0	50	50	–
CC(C)(C)CSCc1ccc(NC(=O)c2snc(Cl)c2Cl)cc1 [No. I-7]	30	0	20	0	50	50	–
